Data as given in ChEMBL document CHEMBL1136403, “Synthesis and biological evaluation of some novel 4'-thio-L-ribonucleosides with modified nucleobase moieties” (Bioorg Med Chem Lett, 2003).
pIC50: −log10 of the molar value.

Assays:
C6 = test: In vitro cytotoxicity against C6 rat glioma cell line; format: functional, cell-based
U-87 MG = test: In vitro cytotoxicity against HTB14 human glioma cell line; format: functional, cell-based, U-87MG ATCC
HeLa = test: In vitro cytotoxicity against HeLa human cervical carcinoma cell line; format: functional, cell-based
NHDF = test: In vitro cytotoxicity against normal human dermal fibroblast (NHDF) cell line; format: functional, cell-based
NB-4 [1] = test: In vitro cytotoxicity against NB4 leukemia cell line; format: functional, cell-based; details: Homo sapiens
T47D [2] = test: In vitro cytotoxicity against T47D breast cancer cell line; format: functional, cell-based; details: Homo sapiens
T47D [3] = test: Growth stimulating activity against T47D breast cancer cell line; growth stimulatory activity is observed.; format: functional, cell-based, Homo sapiens
NB-4 [4] = test: Growth stimulating activity against NB4 leukemia cell line; growth stimulatory activity is observed.; format: functional, cell-based, Homo sapiens

Structure (SMILES)	pIC50 (C6)	pIC50 (U-87 MG)	pIC50 (HeLa)	pIC50 (NHDF)	pIC50 (NB-4 [1])	pIC50 (T47D [2])	IC50 (T47D [3])	IC50 (NB-4 [4])
Cc1cn([C@H]2S[C@@H](CO)[C@H](O)[C@@H]2O)c(=O)[nH]c1=O	< 4.00	4.17	4.00	< 4.00	< 4.00	< 4.00		
Nc1nc(S)c2ncn([C@H]3S[C@@H](CO)[C@H](O)[C@@H]3O)c2n1	< 4.00	4.21	< 4.00	< 4.00	< 4.00		Growth-stimulatory activity	
O=c1[nH]c(=O)n([C@H]2S[C@@H](CO)[C@H](O)[C@@H]2O)cc1F	< 4.00	4.38	< 4.00	< 4.00	< 4.00	< 4.00		
Nc1nc(=O)n([C@H]2S[C@@H](CO)[C@H](O)[C@@H]2O)cc1F	< 4.00	4.08	4.02	< 4.00			Growth-stimulatory activity	Growth-stimulatory activity
